Measured values taken from patent publication US4749710A, “Immunosuppressive agents” (priority 1985, dated 1988).

Tested on: IgM production by human lymphocytes
Experiment: Inhibition of IgM production by human lymphocytes in vitro (SAC activation, ELISA)
Type: cell-based
Details: 8 days, vehicle control 2.49 ± 0.17
How it was run: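 Human PBL (2.5×10^6 cells/ml in 20% FBS RPMI) activated with SAC (1:20,000) for 8 days with vitamin D derivatives at 10^-5–10^-10 M final, 0.1% ethanol vehicle, triplicates. Secreted IgM or IgG quantified by ELISA and compared with vehicle cultures.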

| SMILES | IgM μg per culture (x ± S.E.M.) (1 × 10^-6 molar) | IgM μg per culture (x ± S.E.M.) (1 × 10^-7 molar) [μg per culture] | IgM μg per culture (x ± S.E.M.) (1 × 10^-8 molar) [μg per culture] | IgM μg per culture (x ± S.E.M.) (1 × 10^-9 molar) [μg per culture] | IgM μg per culture (x ± S.E.M.) (1 × 10^-10 molar) [μg per culture] |
| --- | --- | --- | --- | --- | --- |
| C=C1/C(=C\C=C2/CCC[C@]3(C)[C@@H]([C@H](C)C[C@H](O)CC(C)(C)O)CC[C@@H]23)C[C@@H](O)C[C@@H]1O [1α,23S,25-(OH)3 --D3, 1α,23S,25-Trihydroxycholecalciferol] | undetectable | 0.12 ± 0.07 | 0.46 ± 0.13 | 1.55 ± 0.96 | 4.61 ± 0.73 |
| C=C1/C(=C\C=C2/CCC[C@]3(C)[C@@H]([C@H](C)/C=C/[C@H](C)[C@](C)(O)CO)CC[C@@H]23)C[C@@H](O)C[C@@H]1O [1α,25S,26-(OH)3 --D2, 1α,25S,26-Trihydroxyergocalciferol] | 0.01 ± 0.006 μg per culture | 0.03 ± 0.01 | 0.14 ± 0.12 | 0.29 ± 0.17 | 1.09 ± 0.26 |
| C=C1/C(=C\C=C2/CCC[C@]3(C)[C@@H]([C@H](C)C=CC[C@](C)(O)CO)CC[C@@H]23)C[C@@H](O)C[C@@H]1O [1α,25S,26-(OH)3 --Δ^22 -D3, 1α,25S,26-Trihydroxy-Δ^22-cholecalciferol] | undetectable | 0.05 ± 0.03 | 0.09 ± 0.04 | 0.24 ± 0.07 | 1.02 ± 0.34 |
